This note sets out measurements from ChEMBL document CHEMBL1148160, “Planaxool: a novel cytotoxic cembranoid form the mollusk Planaxis sulcatus” (1993).

The subject of this assay is L1210. As to the kind of experiment: Cytotoxicity against mouse L1210 cells. In kind it is functional.

Compound `C/C1=C\CC[C@]2(C)O[C@H]([C@@H]3OC(=O)[C@]4(OO)CCO[C@@H]2C[C@H]34)[C@H](C)CCC1` [PLANAXOOL] had an IC100 of 2.4 µg/mL.
